From PubChem BioAssay AID330 (DTP/NCI, 2004)
Several values for one entry are separate records, joined by “and”; a condition that tells them apart may be missing. Identical values can stand only once. Inconclusive results and toxic doses are left out.

Tested on: P388 leukemia ip, CD2F1 mice, survival T/C
Assay: NCI In Vivo Anticancer Drug Screen. Data for tumor model P388 Leukemia (intraperitoneal) in CD2F1 (CDF1) mice
Details: endpoint: median survival time, higher = longer survival
How it was run: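 Mice carrying the transplanted tumor received test compound or vehicle. Survival was recorded in each group, and the value is the treated-group measurement divided by that of the vehicle-treated control group.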

[1] = dose: 25.0 mg/kg/injection, schedule: Q04DX002 (ip), vehicle: saline with Tween-80

In the case of `O=C(NNC(=O)C12CC3CC(CC(C3)C1)C2)C12CC3CC(CC(C3)C1)C2`, the T/C (dose: 25.0 mg/kg/injection, schedule: Q01DX005 (ip), vehicle: Klucel (hydroxypropylcellulose) (HPC)) is reported as 105 % of control, the T/C (dose: 50.0 mg/kg/injection, schedule: Q01DX005 (ip), vehicle: Klucel (hydroxypropylcellulose) (HPC)) is reported as 102 % of control and the T/C (dose: 100.0 mg/kg/injection, schedule: Q01DX005 (ip), vehicle: Klucel (hydroxypropylcellulose) (HPC)) is reported as 105 % of control. The T/C (dose: 200.0 mg/kg/injection, schedule: Q01DX005 (ip), vehicle: Klucel (hydroxypropylcellulose) (HPC)) was 105 % of control.

For `O=C1Nc2ccc(Br)cc2/C1=C/C(=O)c1ccccc1`, the T/C (dose: 50.0 mg/kg/injection, schedule: Q01DX009 (ip), vehicle: Klucel (hydroxypropylcellulose) (HPC)) was 111 % of control, the T/C (dose: 100.0 mg/kg/injection, schedule: Q01DX009 (ip), vehicle: Klucel (hydroxypropylcellulose) (HPC)) was 101 % of control and the T/C (dose: 200.0 mg/kg/injection, schedule: Q01DX009 (ip), vehicle: Klucel (hydroxypropylcellulose) (HPC)) was 103 % of control.

In the case of `CC12CCC(C=C1N1CCOCC1)C(C)(C)O2` (configuration not stated), the T/C (dose: 25.0 mg/kg/injection, schedule: Q01DX005 (ip), vehicle: saline with Tween-80) is reported as 97 % of control, the T/C (dose: 25.0 mg/kg/injection, schedule: Q01DX005 (ip), vehicle: saline) is reported as 100 % of control and the T/C (dose: 50.0 mg/kg/injection, schedule: Q01DX005 (ip), vehicle: saline with Tween-80) is reported as 103 % of control. For the same compound, the T/C (dose: 50.0 mg/kg/injection, schedule: Q01DX005 (ip), vehicle: saline) was 102 % of control, the T/C (dose: 100.0 mg/kg/injection, schedule: Q01DX005 (ip), vehicle: saline with Tween-80) was 94 % of control and the T/C (dose: 100.0 mg/kg/injection, schedule: Q01DX005 (ip), vehicle: saline) was 100 % of control. The T/C (dose: 200.0 mg/kg/injection, schedule: Q01DX005 (ip), vehicle: saline with Tween-80) was 94 % of control and the T/C (dose: 200.0 mg/kg/injection, schedule: Q01DX005 (ip), vehicle: saline) was 99 % of control.

In the case of `C=CS(=O)(=NN1C(=O)c2ccccc2C1=O)c1ccc(C)cc1` (configuration not stated), the T/C (dose: 6.25 mg/kg/injection, schedule: Q01DX001 (ip), vehicle: Klucel (hydroxypropylcellulose) (HPC)) is reported as 95 % of control, the T/C (dose: 12.5 mg/kg/injection, schedule: Q01DX001 (ip), vehicle: Klucel (hydroxypropylcellulose) (HPC)) is reported as 98 % of control and the T/C (dose: 25.0 mg/kg/injection, schedule: Q01DX001 (ip), vehicle: Klucel (hydroxypropylcellulose) (HPC)) is reported as 104 % of control and 95 % of control. For the same compound, the T/C (dose: 50.0 mg/kg/injection, schedule: Q01DX001 (ip), vehicle: Klucel (hydroxypropylcellulose) (HPC)) was 101 % of control and 104 % of control and the T/C (dose: 100.0 mg/kg/injection, schedule: Q01DX001 (ip), vehicle: Klucel (hydroxypropylcellulose) (HPC)) was 106 % of control and 113 % of control.

In the case of `C/C1=C\C(=O)OCC23CC(O)C4(C)OC4C2OC2CC(OC(=O)/C=C/C=C/C(C(C)O)OCC1O)C3(C)C21CO1` (configuration not stated), the T/C (dose: 1.25 mg/kg/injection, schedule: Q01DX005 (ip), vehicle: saline + alcohol) is reported as 120 % of control, the T/C (dose: 2.5 mg/kg/injection, schedule: Q01DX005 (ip), vehicle: saline + alcohol) is reported as 120 % of control and the T/C (dose: 5.0 mg/kg/injection, schedule: Q01DX005 (ip), vehicle: saline + alcohol) is reported as 155 % of control. For the same compound, the T/C (dose: 10.0 mg/kg/injection, schedule: Q01DX005 (ip), vehicle: saline + alcohol) was 172 % of control.

With `Cc1cc2c3ccc(C)[n+](C)c3ccc2n1C` the T/C (dose: 1.25 mg/kg/injection, schedule: Q01DX010 (ip), vehicle: saline) was 100 % of control and the T/C (dose: 2.5 mg/kg/injection, schedule: Q01DX010 (ip), vehicle: saline) was 105 % of control.

For `CN1CC(=O)[O][Sn]([CH3])([CH3])[O]C(=O)C1`, the T/C (dose: 7.5 mg/kg/injection, schedule: Q01DX005 (ip), vehicle: Klucel (hydroxypropylcellulose) (HPC)) was 119 % of control, the T/C (dose: 15.0 mg/kg/injection, schedule: Q01DX005 (ip), vehicle: Klucel (hydroxypropylcellulose) (HPC)) was 122 % of control and the T/C (dose: 15.0 mg/kg/injection, schedule: Q01DX005 (ip), vehicle: saline with Tween-80) was 101 % of control. For the same compound, the T/C (dose: 30.0 mg/kg/injection, schedule: Q01DX005 (ip), vehicle: Klucel (hydroxypropylcellulose) (HPC)) was 122 % of control and the T/C (dose: 30.0 mg/kg/injection, schedule: Q01DX005 (ip), vehicle: saline with Tween-80) was 116 % of control.

For `CN(C)[C@@H]1C(=O)C(C(=O)NCNC(CO)(CO)CO)=C(O)[C@@]2(O)C(=O)C3=C(O)c4c(O)cccc4[C@@](C)(O)[C@H]3C[C@@H]12`, the T/C (dose: 25.0 mg/kg/injection, schedule: Q01DX009 (ip), vehicle: saline) was 100 % of control, the T/C (dose: 50.0 mg/kg/injection, schedule: Q01DX009 (ip), vehicle: saline) was 95 % of control and the T/C (dose: 100.0 mg/kg/injection, schedule: Q01DX009 (ip), vehicle: saline) was 100 % of control.

With `CC(=O)Nc1ccc(/C=C\c2ccnc3ccccc23)cc1` the T/C [1] was 109 % of control.

For `O=C1NC(=O)C2(CC3CCCC(C2)N3c2ccccc2)N1` (configuration not stated), the T/C (dose: 100.0 mg/kg/injection, schedule: Q04DX003 (ip), vehicle: DMSO) was 95 % of control, the T/C (dose: 200.0 mg/kg/injection, schedule: Q04DX003 (ip), vehicle: DMSO) was 89 % of control and the T/C (dose: 400.0 mg/kg/injection, schedule: Q04DX003 (ip), vehicle: DMSO) was 91 % of control.

For `C=CC(Br)CCCBr` (configuration not stated), the T/C (dose: 12.5 mg/kg/injection, schedule: Q04DX002 (ip), vehicle: saline with Tween-80) was 106 % of control, the T/C [1] was 112 % of control and the T/C (dose: 50.0 mg/kg/injection, schedule: Q04DX002 (ip), vehicle: saline with Tween-80) was 101 % of control. For the same compound, the T/C (dose: 100.0 mg/kg/injection, schedule: Q04DX002 (ip), vehicle: saline with Tween-80) was 104 % of control.
